# Data as given in patent US20260022142A1, “MACROCYCLIC IMMUNOMODULATORS” (Bristol-Myers Squibb Company, priority 2022, published 2026).
# Bridge positions count the residues as written; N and C are the ends. Square brackets hold non-standard residues; d marks the D form. Peptide text beside a SMILES is read from it. * marks the point of attachment. ξ: configuration not given here. Phe(3-CF3) = N[C@@H](Cc1cccc(C(F)(F)F)c1)C(=O)O; Ala(morpholin-4-yl) = N[C@@H](CN1CCOCC1)C(=O)O; Phe(4-CONH2) = NC(=O)c1ccc(C[C@H](N)C(=O)O)cc1; Phe(4-COOH) = N[C@@H](Cc1ccc(C(=O)O)cc1)C(=O)O; Bip = N[C@@H](Cc1ccc(-c2ccccc2)cc1)C(=O)O; Tyr(3-Me) = Cc1cc(C[C@H](N)C(=O)O)ccc1O; Phe(3-Me) = Cc1cccc(C[C@H](N)C(=O)O)c1; NH(CH2)12COOH = O=C(O)CCCCCCCCCCCCN*; Val(3-OH) = CC(C)(O)[C@H](N)C(=O)O; hArg = N=C(N)NCCCC[C@H](N)C(=O)O; Cha = N[C@@H](CC1CCCCC1)C(=O)O; dNMeN = CN[C@H](CC(N)=O)C(=O)O; Thr(3ξ) = CC(O)[C@H](N)C(=O)O; PEG4 = NCCOCCOCCOCCOCCC(=O)O; 12Ado = NCCCCCCCCCCCC(=O)O; dNle = CCCC[C@@H](N)C(=O)O; Carboxymethyl = O=C(O)C*; Orn = NCCC[C@H](N)C(=O)O; Aun = NCCCCCCCCCCC(=O)O; Dab = NCC[C@H](N)C(=O)O; Dap = NC[C@H](N)C(=O)O; AEEA = NCCOCCOCC(=O)O
# Molecular target: T1, PD-1/PD-L1 interaction (PE-labeled human PD-L1-Ig binding to Jurkat cell line over-expressing human PD-1) (Homo sapiens, UniProt Q15116)
# T1 construct: expressed in transfected cells; host or cells: Jurkat
# Assay: Jurkat-PD-1 Cell Binding High-Content Screening Assay (CBA)
# Assay type: cell-based
# Conditions: Jurkat cell line over-expressing human PD-1; PE-labeled PD-L1-Ig 20 nM final; read-out: Jurkat hPD1-PDL1 IC50
# Procedure, shortened: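 Jurkat-hPD-1 cells, DMEM/10% FCS; cpd 2 h 37° C; PE-PD-L1-Ig 20 nM final, 1 h; 4% PFA fix + Hoechst 33342, 3× dPBS wash; high-content imaging read-out.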
# T1 sequence (Q15116 25-288): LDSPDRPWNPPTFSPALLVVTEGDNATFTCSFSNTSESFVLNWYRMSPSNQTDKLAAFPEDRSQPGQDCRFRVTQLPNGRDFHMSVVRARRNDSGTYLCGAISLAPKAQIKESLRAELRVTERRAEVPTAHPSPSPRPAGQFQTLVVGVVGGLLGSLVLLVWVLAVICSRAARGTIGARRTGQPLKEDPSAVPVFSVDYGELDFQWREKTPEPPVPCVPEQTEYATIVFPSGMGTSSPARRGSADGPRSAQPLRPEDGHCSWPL
row,IC50 [nM],SMILES
1,41.8,COC[C@@H]1NC(=O)CSC[C@@H](C(=O)N[C@@H](CCN)C(=O)NCCCCCCCCCCCCC(=O)O)NC(=O)[C@H](CO)NC(=O)[C@H](C(C)(C)O)NC(=O)[C@H](CC2CCCCC2)NC(=O)[C@H](CCN)NC(=O)[C@@H](CC(C)C)NC(=O)[C@H](CCCN)NC(=O)[C@H](Cc2ccc(C(=O)O)cc2)NC(=O)[C@H](Cc2ccc(-c3ccccc3)cc2)NC(=O)[C@H](Cc2ccc(C(=O)O)cc2)NC(=O)[C@H](Cc2cccc(C(F)(F)F)c2)NC(=O)[C@H](CC(=O)O)NC(=O)[C@H](Cc2ccc(OCC(=O)O)cc2)NC1=O [Compound 2907] ({CH2CO}-S(Me)Y(Carboxymethyl)D[Phe(3-CF3)][Phe(4-COOH)][Bip][Phe(4-COOH)][Orn][dL][Dab][Cha][Val(3-OH)]SC[Dab]-{NH(CH2)12COOH}; thioether N-14)
2,34.1,CC(C)C[C@H]1NC(=O)[C@H](CCCN)NC(=O)[C@H](C(C)C)NC(=O)[C@H](Cc2ccc(-c3ccccc3)cc2)NC(=O)[C@H](C(C)C)NC(=O)[C@H](Cc2c[nH]c3ccccc23)NC(=O)[C@H](CC(=O)O)NC(=O)[C@H](Cc2ccc(OCC(=O)O)cc2)NC(=O)[C@H](CN)NC(=O)CSC[C@@H](C(=O)NCCOCCOCC(=O)N[C@@H](CCCCN)C(=O)NCCCCCCCCCCC(=O)O)NC(=O)[C@H](CCCCN)NC(=O)[C@H](C(C)C)NC(=O)[C@H](CC2CCCCC2)NC(=O)[C@H](CCN)NC1=O [Compound 2595] ({CH2CO}-[Dap]Y(Carboxymethyl)DWV[Bip]V[Orn][dL][Dab][Cha]VKC[AEEA]K[Aun]-OH; thioether N-14)
3,64.4,CC(C)C[C@H]1NC(=O)[C@H](CCCN)NC(=O)[C@H](Cc2ccc(C(=O)O)cc2)NC(=O)[C@H](Cc2ccc(-c3ccccc3)cc2)NC(=O)[C@H](Cc2ccc(C(=O)O)cc2)NC(=O)[C@H](Cc2cccc(C(F)(F)F)c2)NC(=O)[C@H](CC(=O)O)NC(=O)[C@H](Cc2ccc(OCC(=O)O)cc2)NC(=O)[C@H](CN2CCOCC2)NC(=O)CSC[C@@H](C(=O)N[C@@H](CCN)C(=O)NCCOCCOCCOCCOCCC(=O)NCCCCCCCCCCCCC(=O)O)NC(=O)[C@H](CC(=O)O)NC(=O)[C@H](C(C)(C)O)NC(=O)[C@H](CC2CCCCC2)NC(=O)[C@H](CCN)NC1=O [Compound 2947] ({CH2CO}-[Ala(morpholin-4-yl)]Y(Carboxymethyl)D[Phe(3-CF3)][Phe(4-COOH)][Bip][Phe(4-COOH)][Orn][dL][Dab][Cha][Val(3-OH)]DC[Dab][PEG4]-{NH(CH2)12COOH}; thioether N-14)
4,23.3,Cc1cccc(C[C@@H]2NC(=O)[C@H](CC(=O)O)NC(=O)[C@H](Cc3ccc(OCC(=O)O)cc3)NC(=O)[C@H](CCN)NC(=O)CSC[C@@H](C(=O)N[C@@H](CCN)C(=O)N[C@@H](CO)C(=O)NCCCCCCCCCCCC(=O)O)NC(=O)[C@H](CO)NC(=O)[C@H](C(C)(C)O)NC(=O)[C@H](CC3CCCCC3)NC(=O)[C@H](CCN)NC(=O)[C@@H](CC(C)C)NC(=O)[C@H](CCCN)NC(=O)[C@H](Cc3ccc(OCC(=O)O)cc3)NC(=O)[C@H](Cc3ccc(-c4ccccc4)cc3)NC(=O)[C@H](Cc3ccc(OCC(=O)O)cc3)NC2=O)c1 [Compound 3625] ({CH2CO}-[Dab]Y(Carboxymethyl)D[Phe(3-Me)]Y(Carboxymethyl)[Bip]Y(Carboxymethyl)[Orn][dL][Dab][Cha][Val(3-OH)]SC[Dab]S[12Ado]-OH; thioether N-14)
5,13.3,CC(C)C[C@H]1NC(=O)[C@H](CCCN)NC(=O)[C@H](Cc2ccc(O)cc2)NC(=O)[C@H](Cc2ccc(-c3ccccc3)cc2)NC(=O)[C@H](C(C)C)NC(=O)[C@H](Cc2c[nH]c3ccccc23)NC(=O)[C@H](CC(=O)O)NC(=O)[C@H](Cc2ccc(C(=O)O)cc2)NC(=O)[C@H](CC(N)=O)NC(=O)CSC[C@@H](C(=O)N[C@@H](CCN)C(=O)NCCCCCCCCCCC(=O)O)NC(=O)[C@H](CCC(=O)O)NC(=O)[C@H](C(C)C)NC(=O)[C@H](CC2CCCCC2)NC(=O)[C@H](CCN)NC1=O [Compound 3392] ({CH2CO}-N[Phe(4-COOH)]DWV[Bip]Y[Orn][dL][Dab][Cha]VEC[Dab][Aun]-OH; thioether N-14)
6,11.6,CCCC[C@H]1NC(=O)[C@H](CCCN)NC(=O)[C@H](C(C)C)NC(=O)[C@H](Cc2ccc(-c3ccccc3)cc2)NC(=O)[C@H](C(C)C)NC(=O)[C@H](Cc2cccc(C)c2)NC(=O)[C@H](CC(=O)O)NC(=O)[C@H](Cc2ccc(OCC(=O)O)cc2)NC(=O)[C@H](CN)NC(=O)CSC[C@@H](C(=O)N[C@@H](CCCCN)C(=O)NCCCCCCCCCCC(=O)O)NC(=O)[C@H](CN)NC(=O)[C@H](C(C)C)NC(=O)[C@H](CC2CCCCC2)NC(=O)[C@H](CCN)NC1=O [Compound 2685] ({CH2CO}-[Dap]Y(Carboxymethyl)D[Phe(3-Me)]V[Bip]V[Orn][dNle][Dab][Cha]V[Dap]CK[Aun]-OH; thioether N-14)
7,160,CC(=O)NCCCC[C@@H]1NC(=O)[C@H](C(C)C)NC(=O)[C@H](CC2CCCCC2)NC(=O)[C@H](CCN)NC(=O)[C@@H](CC(C)C)NC(=O)[C@H](CCCN)NC(=O)[C@H](C(C)C)NC(=O)[C@H](Cc2ccc(-c3ccccc3)cc2)NC(=O)[C@H](C(C)C)NC(=O)[C@H](Cc2cccc(C)c2)NC(=O)[C@H](CC(=O)O)NC(=O)[C@H](Cc2ccc(OCC(=O)O)cc2)NC(=O)[C@H](C(C)O)NC(=O)CSC[C@@H](C(=O)N(C)[C@H](CC(N)=O)C(=O)NCCCCCCCCCCC(=O)O)NC1=O (stereo partly drawn) [Compound 3445] ({CH2CO}-[Thr(3ξ)]Y(Carboxymethyl)D[Phe(3-Me)]V[Bip]V[Orn][dL][Dab][Cha]VK(Ac)C[dNMeN][Aun]-OH; thioether N-14)
8,12,CC(=O)NCCCC[C@@H]1NC(=O)[C@H](C(C)C)NC(=O)[C@H](CC2CCCCC2)NC(=O)[C@H](CCN)NC(=O)[C@@H](CC(C)C)NC(=O)[C@H](CCN)NC(=O)[C@H](C(C)C)NC(=O)[C@H](Cc2ccc(-c3ccccc3)cc2)NC(=O)[C@H](C(C)C)NC(=O)[C@H](Cc2cccc(C)c2)NC(=O)[C@H](CC(=O)O)NC(=O)[C@H](Cc2ccc(OCC(=O)O)cc2)NC(=O)[C@H](C(C)O)NC(=O)CSC[C@@H](C(=O)NCCOCCOCC(=O)NCCCCCCCCCCC(=O)O)NC1=O (stereo partly drawn) [Compound 3443] ({CH2CO}-[Thr(3ξ)]Y(Carboxymethyl)D[Phe(3-Me)]V[Bip]V[Dab][dL][Dab][Cha]VK(Ac)C[AEEA][Aun]-OH; thioether N-14)
9,11.5,Cc1cccc(C[C@@H]2NC(=O)[C@H](CC(=O)O)NC(=O)[C@H](Cc3ccc(OCC(=O)O)cc3)NC(=O)[C@H](CN)NC(=O)CSC[C@@H](C(=O)N[C@@H](CCCCN)C(=O)NCCOCCOCC(=O)NCCCCCCCCCCC(=O)O)NC(=O)[C@H](CCCN)NC(=O)[C@H](C(C)C)NC(=O)[C@H](CC3CCCCC3)NC(=O)[C@H](CCN)NC(=O)[C@@H](CC(C)C)NC(=O)[C@H](CCCN)NC(=O)[C@H](CCC(=O)O)NC(=O)[C@H](Cc3ccc(-c4ccccc4)cc3)NC(=O)[C@H](C(C)C)NC2=O)c1 [Compound 2669] ({CH2CO}-[Dap]Y(Carboxymethyl)D[Phe(3-Me)]V[Bip]E[Orn][dL][Dab][Cha]V[Orn]CK[AEEA][Aun]-OH; thioether N-14)
10,16.5,CC(C)C[C@H]1NC(=O)[C@H](CCCN)NC(=O)[C@H](C(C)C)NC(=O)[C@H](Cc2ccc(-c3ccccc3)cc2)NC(=O)[C@H](C(C)C)NC(=O)[C@H](Cc2c[nH]c3ccccc23)NC(=O)[C@H](CC(=O)O)NC(=O)[C@H](Cc2ccc(OCC(=O)O)cc2)NC(=O)[C@H](CCCCNC(=N)N)NC(=O)CSC[C@@H](C(=O)NCC(=O)NCCOCCOCC(=O)N[C@@H](CCCN)C(=O)NCCCCCCCCCCC(=O)O)NC(=O)[C@H](C(C)O)NC(=O)[C@H](C(C)C)NC(=O)[C@H](CC2CCCCC2)NC(=O)[C@H](CCN)NC1=O (stereo partly drawn) [Compound 3130] ({CH2CO}-[hArg]Y(Carboxymethyl)DWV[Bip]V[Orn][dL][Dab][Cha]V[Thr(3ξ)]CG[AEEA][Orn][Aun]-OH; thioether N-14)
11,15.9,Cc1cc(C[C@@H]2NC(=O)[C@H](CC(=O)O)NC(=O)[C@H](Cc3ccc(OCC(=O)O)cc3)NC(=O)[C@H](CCCNC(=N)N)NC(=O)CSC[C@@H](C(=O)N[C@@H](CCN)C(=O)NCCCCCCCCCCC(=O)O)NC(=O)[C@H]([C@@H](C)O)NC(=O)[C@H](C(C)C)NC(=O)[C@H](CC3CCCCC3)NC(=O)[C@H](CCN)NC(=O)[C@@H](CC(C)C)NC(=O)[C@H](CCCN)NC(=O)[C@H](Cc3ccc(OCC(=O)O)cc3)NC(=O)[C@H](Cc3ccc(-c4ccccc4)cc3)NC(=O)[C@H](Cc3ccc(O)cc3)NC2=O)ccc1O [Compound 2106] ({CH2CO}-RY(Carboxymethyl)D[Tyr(3-Me)]Y[Bip]Y(Carboxymethyl)[Orn][dL][Dab][Cha]VTC[Dab][Aun]-OH; thioether N-14)

# Same assay, conditions: Jurkat hPD1-PDL1 IC50, Jurkat cell line over-expressing human PD-1; PE-labeled PD-L1-Ig 20 nM final
row,SMILES,IC50 [nM]
1,Cc1cccc(C[C@@H]2NC(=O)[C@H](CC(=O)O)NC(=O)[C@H](Cc3ccc(OCC(=O)O)cc3)NC(=O)[C@H](Cc3ccc(C(N)=O)cc3)NC(=O)CSC[C@@H](C(=O)N[C@@H](CCN)C(=O)NCCCCCCCCCCC(=O)O)NC(=O)[C@H]([C@@H](C)O)NC(=O)[C@H](C(C)C)NC(=O)[C@H](CC3CCCCC3)NC(=O)[C@H](CCN)NC(=O)[C@@H](CC(C)C)NC(=O)[C@H](CCCN)NC(=O)[C@H](Cc3ccc(OCC(=O)O)cc3)NC(=O)[C@H](Cc3ccc(-c4ccccc4)cc3)NC(=O)[C@H](Cc3ccc(OCC(=O)O)cc3)NC2=O)c1 [Compound 2146] ({CH2CO}-[Phe(4-CONH2)]Y(Carboxymethyl)D[Phe(3-Me)]Y(Carboxymethyl)[Bip]Y(Carboxymethyl)[Orn][dL][Dab][Cha]VTC[Dab][Aun]-OH; thioether N-14),13.2
